Assay results taken from ChEMBL document CHEMBL3352161, “Phorbaketals L-N, cytotoxic sesterterpenoids isolated from the marine sponge of the genus Phorbas” (Bioorg Med Chem Lett, 2014).

Assays:
Type in all cases: functional, cell-based
ACHN = test: Cytotoxicity against human ACHN cells after 72 hrs by MTT assay
[1] = Cytotoxicity against human PANC1 cells after 72 hrs by MTT assay; settings: PANC-1, 72 h
A498 = test: Cytotoxicity against human A498 cells after 72 hrs by MTT assay; settings: A498, 72 h

| SMILES | IC50 (ACHN) [µM] | IC50 [1] [µM] | IC50 (A498) [µM] |
| --- | --- | --- | --- |
| CCN(CC)CCNC(=O)c1c(C)[nH]c(/C=C2\C(=O)Nc3ccc(F)cc32)c1C [SUNITINIB MALATE] | 2 | – | – |
| C=C(CCC1OC1(C)C)[C@H](Br)[C@@H]1CC(C)=C[C@]2(C=C(CO)[C@H]3CC(=O)C(C)=C[C@H]3O2)O1 (stereo not given in full) | 24.4 | 11.4 | 18.7 |
| O=c1[nH]cc(F)c(=O)[nH]1 [FLUOROURACIL] | – | 50 | – |
| CO[C@H]1C[C@@H]2CC[C@@H](C)[C@@](O)(O2)C(=O)C(=O)N2CCCC[C@H]2C(=O)O[C@H]([C@H](C)C[C@@H]2CC[C@@H](OC(=O)C(C)(CO)CO)[C@H](OC)C2)CC(=O)[C@H](C)/C=C(\C)[C@@H](O)[C@@H](OC)C(=O)[C@H](C)C[C@H](C)/C=C/C=C/C=C/1C [TEMSIROLIMUS] | – | – | 0.35 |
| C=C(C)[C@@H](CC/C(C)=C/[C@@H]1CC(C)=C[C@]2(C=C(CO)[C@H]3CC(=O)C(C)=C[C@H]3O2)O1)OO | > 50 | > 50 | > 50 |
| CC(C)=CCC/C(C)=C/[C@@H]1CC(C)=C[C@]2(C=C(CO)[C@H]3CC(=O)C(C)=C[C@H]3O2)O1 | 3 | 13.5 | 4.4 |
| C=C(CCC=C(C)C)[C@H](O)[C@@H]1CC(C)=C[C@]2(C=C(CO)[C@H]3CC(=O)C(C)=C[C@H]3O2)O1 | > 50 | 50 | 17.3 |
